The record followed here is patent EP0047977A2, “Cephalosporin derivatives, process for their preparation, pharmaceutical compositions containing them and their use” (CIBA-GEIGY AG, priority 1980, dated 1982).

The structures appear in SMILES notation. In brackets after ≈: the same amount, converted by molar mass. Where only a bound is given, the exact number is not on record here.

Assay [1] concerns Clostridium perfringens (anaerob). As to the kind of experiment: microbe, parasite or virus in culture. In kind it is cell-based.
A further assay deals with Escherichia coli 205. Briefly: Antibiotic activity in vitro, agar dilution method in DST agar (MIC). In kind it is cell-based. A general note: In agar dilution, organisms are placed on agar that contains the substance at set levels.
Assay [2] relates to Pseudomonas aeruginosa ATCC 12055. The description is as above. The class given is cell-based. As to conditions: ATCC12055.
Assay [3] shares this test system. As to the kind of experiment: Chemotherapeutic efficacy in vivo against systemic infection in the mouse (ED50). As to conditions: ATCC12055, sc; s.c.; systemic infection with Pseudomonas aeruginosa ATCC 12055 in female SPF, MF2 mice. The source says: (§1) B. Die chemotherapeutische Wirksamkeit in vivo gegen systemische Infektionen in weiblichen SPF, MF2 Mäusen wurde nach der Methode von Zak, 0., et al., 1979, Drugs Exptl. Clin. Res. 5, 45-59, ermittelt. Die gefundenen ED50-Werte in Milligramm Substanz pro Kilogramm Maus (mg/kg) gegen eine Anzahl von Mikroorganismen werden für die subcutan (s.c.) applizierten Testverbindungen in der Tabelle 2 angegeben.

The subject of assay [4] is Escherichia coli 205 K 1075. Described as above. As to conditions: 205K1075, sc; s.c.; systemic infection with Escherichia coli 205 K 1075 in female SPF, MF2 mice.
Text: as §1

Assay [5] concerns Streptococcus pyogenes Aronson. As to the kind of experiment: Antibiotic activity in vitro, agar dilution method in DST agar (MIC). The class given is cell-based.

On to `CO/N=C(\C(=O)N[C@@H]1C(=O)N2C(C(=O)[O-])=C(C[n+]3ccc(CO)cc3)CS[C@H]12)c1nsc(N)n1` [Verbindung 6, 7ß-[2-(5-Amino-1,2,4-thiadiazol-3-yl)-2-Z-methoxyiminoacetamido]-3-(4-hydroxymethylpyridiniomethyl)-3-cephem-4-carboxylat], for which the MIC came to 0.01 µg/mL (≈ 0.0198 µM) in assay [1], 0.05 µg/mL (≈ 0.0989 µM) in the assay with Escherichia coli 205 and 0.1 µg/mL (≈ 0.198 µM) in assay [2]. Moreover, in assay [3], the ED50 was in the range of 3 to 10 mg/kg.
For the compound `CO/N=C(\C(=O)N[C@@H]1C(=O)N2C(C(=O)[O-])=C(C[n+]3ccc(C(=O)O)cc3)CS[C@H]12)c1nsc(N)n1` [Verbindung 1, 7ß-[2-(5-Amino-1,2,4-thiadiazol-3-yl)-2-Z-methoxyiminoacetamido]-3-(4-carboxypyridiniomethyl)-3-cephem-4-carboxylat], the MIC in the assay with Escherichia coli 205 turned out to be 0.05 µg/mL (≈ 0.0962 µM); in assay [2] it was 1 µg/mL (≈ 1.92 µM); in assay [5] it was 0.1 µg/mL (≈ 0.192 µM). Also, the ED50 was 6 mg/kg in assay [3] and 0.9 mg/kg in assay [4].
Take `Cn1ccc[n+]1CC1=C(C(=O)[O-])N2C(=O)[C@@H](NC(=O)/C(=N\OC(C)(C)C(=O)O)c3nsc(N)n3)[C@H]2SC1` [Verbindung 3, 7ß-[2-(5-Amino-1,2,4-thiadiazol-3-yl)-2-Z-2-carboxyprop-2-yloxy-iminoacetamido]-3-(2-methyl-1-pyrazoliomethyl)-3-cephem-4-carboxylat]: the MIC in assay [1] came to 0.05 µg/mL (≈ 0.0908 µM); against Escherichia coli 205, 0.5 µg/mL (≈ 0.908 µM); in assay [2], 2 µg/mL (≈ 3.63 µM); in assay [5], 0.5 µg/mL (≈ 0.908 µM). Besides, the ED50 in assay [3] is 10 mg/kg; in assay [4] it was 5 mg/kg.
For the compound `CO/N=C(\C(=O)N[C@@H]1C(=O)N2C(C(=O)[O-])=C(C[n+]3cccn3C)CS[C@H]12)c1nsc(N)n1` [Verbindung 4, 7β-[2-(5-Amino-1,2,4-thiadiazol-3-yl)-2-Z-methoxyiminoacetamido]-3-(2-methyl-1-pyrazoliomethyl)-3-cephem-4-carboxylat], the MIC came to 0.1 µg/mL (≈ 0.209 µM) against Escherichia coli 205, 0.5 µg/mL (≈ 1.04 µM) in assay [2] and 0.1 µg/mL (≈ 0.209 µM) in assay [5]. Besides, the ED50 in assay [3] came out at 30 mg/kg; in assay [4], 2.4 mg/kg.
`CC(C)(O/N=C(\C(=O)N[C@@H]1C(=O)N2C(C(=O)[O-])=C(C[n+]3cccc(CC(=O)O)c3)CS[C@H]12)c1nsc(N)n1)C(=O)O` [Verbindung 2, 7β-[2-(5-Amino-1,2,4-thiadiazol-3-yl)-2-Z-2-carboxyprop-2-yloxy-iminoacetamido]-3-(3-carboxymethylpyridiniomethyl)-3-cephem-4-carboxylat]: the MIC in assay [1] was found to be 0.1 µg/mL (≈ 0.165 µM); in the assay on Escherichia coli 205 it was 1 µg/mL (≈ 1.65 µM); in assay [2], 0.5 µg/mL (≈ 0.826 µM); in assay [5] it was 1 µg/mL (≈ 1.65 µM). Moreover, the ED50 in assay [3] is at least 30 mg/kg; in assay [4], 2 mg/kg.
For the compound `CO/N=C(\C(=O)N[C@@H]1C(=O)N2C(C(=O)[O-])=C(C[n+]3cccc(Br)c3)CS[C@H]12)c1nsc(N)n1` [Verbindung 5, 7β-[2-(5-Amino-1,2,4-thiadiazol-3-yl)-2-Z-methoxyiminoacetamido]-3--(3-brompyridiniomethyl)-3-cephem-4-carboxylat], the MIC in assay [1] is 0.01 µg/mL (≈ 0.018 µM); against Escherichia coli 205, 0.1 µg/mL (≈ 0.18 µM); in assay [2], 0.5 µg/mL (≈ 0.902 µM); in assay [5], 0.05 µg/mL (≈ 0.0902 µM). For the same compound, the ED50 in assay [3] is 10 to 30 mg/kg; in assay [4], 0.9 mg/kg.

For orientation: ED50 means the dose at which the effect has come halfway, by size or by number of responders. The low end stands for an effect at a small dose, the high end for a need for a large dose.
